According to ChEMBL document CHEMBL1156081, “Discovery of 4-functionalized phenyl-O-beta-D-glycosides as a new class of mushroom tyrosinase inhibitors” (Bioorg Med Chem Lett, 2009):
Activity calls are given as the source filed them. The rule behind the calls is not given here.

How the values were obtained:
Tyrosinase = target: T1, Tyrosinase (Agaricus bisporus, UniProt O42713); experiment: Inhibition of mushroom tyrosinase
T1 sequence (O42713 whole entry): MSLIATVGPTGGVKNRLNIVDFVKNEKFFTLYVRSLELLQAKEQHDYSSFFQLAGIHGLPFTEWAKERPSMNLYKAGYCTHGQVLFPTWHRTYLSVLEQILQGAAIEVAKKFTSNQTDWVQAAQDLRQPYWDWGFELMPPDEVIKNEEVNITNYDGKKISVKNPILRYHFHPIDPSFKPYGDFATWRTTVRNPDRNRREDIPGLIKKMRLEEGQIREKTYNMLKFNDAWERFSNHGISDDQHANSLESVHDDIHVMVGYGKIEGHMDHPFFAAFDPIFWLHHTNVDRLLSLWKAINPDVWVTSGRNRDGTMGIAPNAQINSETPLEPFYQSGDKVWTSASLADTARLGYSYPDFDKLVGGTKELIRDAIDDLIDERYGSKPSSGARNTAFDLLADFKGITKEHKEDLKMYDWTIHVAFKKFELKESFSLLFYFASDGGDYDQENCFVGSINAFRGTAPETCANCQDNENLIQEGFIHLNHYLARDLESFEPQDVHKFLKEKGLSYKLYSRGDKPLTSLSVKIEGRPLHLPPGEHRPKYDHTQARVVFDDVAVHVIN

[1] = target: T2, Tyrosinase (Agaricus bisporus) (UniProt O42713); experiment: Inhibition of mushroom tyrosinase at 200 uM
T2 sequence (whole entry): T1 sequence (O42713 whole entry)

[2] = target: T2, Tyrosinase (Agaricus bisporus); experiment: Reversible inhibition of mushroom tyrosinase assessed as L-DOPA oxidation at 1.2 to 2.4 uM
[3] = target: T2, Tyrosinase (Agaricus bisporus); experiment: Competitive-uncompetitive mixed-2 type inhibition of mushroom tyrosinase assessed as L-DOPA oxidation at 0.05 to 0.10 uM by Lineweaver-Burke double reciprocal plot
[4] = target: T2, Tyrosinase (Agaricus bisporus); settings: 1.06 to 0.12 uM
Description: Competitive inhibition of mushroom tyrosinase assessed as L-DOPA oxidation at 1.06 to 0.12 uM by Lineweaver-Burke double reciprocal plot

Row | Compound | IC50 (Tyrosinase) [µM] | inhibition [1] | other results
1 | CC(=O)OC[C@H]1O[C@@H](Oc2ccc(/C=N\NC(N)=S)cc2)[C@H](OC(C)=O)[C@@H](OC(C)=O)[C@H]1OC(C)=O | 0.41 |  | 
2 | CC(=O)OC[C@H]1O[C@@H](Oc2ccc(C=O)cc2)[C@H](OC(C)=O)[C@@H](OC(C)=O)[C@H]1OC(C)=O |  | inactive | 
3 | CCO/N=C\c1ccc(O)c(O)c1 | 0.3 |  | 
4 | CO/N=C\c1ccc(O[C@@H]2O[C@H](COC(C)=O)[C@@H](OC(C)=O)[C@@H](OC(C)=O)[C@H]2OC(C)=O)cc1 | > 200 | inactive | 
5 | CC(=O)OC[C@H]1O[C@@H](Oc2ccc(/C=N\O)cc2)[C@H](OC(C)=O)[C@@H](OC(C)=O)[C@H]1OC(C)=O | > 200 | inactive | 
6 | CC(=O)OC[C@H]1O[C@@H](Oc2ccc(C=O)cc2)[C@H](OC(C)=O)[C@@H](OC(C)=O)[C@@H]1OC(C)=O |  | inactive | 
7 | CC(=O)OC[C@H]1O[C@@H](O[C@H]2[C@H](OC(C)=O)[C@@H](OC(C)=O)[C@H](Oc3ccc(/C=N\O)cc3)O[C@@H]2COC(C)=O)[C@H](OC(C)=O)[C@@H](OC(C)=O)[C@H]1OC(C)=O | > 200 | inactive | 
8 | CC(=O)OC[C@H]1O[C@@H](Oc2ccc(C=O)cc2)[C@H](OC(C)=O)[C@H](OC(C)=O)[C@@H]1OC(C)=O |  | inactive | 
9 | O=C(O[C@@H]1[C@@H](OC(=O)c2ccccc2)[C@H](Oc2ccc(/C=N\O)cc2)OC[C@H]1OC(=O)c1ccccc1)c1ccccc1 | > 200 | inactive | 
10 | CO/N=C\c1ccc(O[C@@H]2O[C@H](CO)[C@@H](O)[C@H](O)[C@H]2O)cc1 | > 200 | inactive | 
11 | OC[C@H]1O[C@@H](Oc2ccc(/C=N\O)cc2)[C@H](O)[C@H](O)[C@@H]1O | > 200 | inactive | 
12 | OC[C@H]1O[C@@H](Oc2ccc(/C=N\O)cc2)[C@H](O)[C@@H](O)[C@@H]1O | > 200 | inactive | 
13 | CO/N=C\c1ccc(O[C@@H]2O[C@H](COC(C)=O)[C@@H](OC(C)=O)[C@H](OC(C)=O)[C@H]2OC(C)=O)cc1 | > 200 | inactive | 
14 | NC(=S)N/N=C\c1ccc(O[C@@H]2O[C@H](COC(=O)c3ccccc3)[C@@H](OC(=O)c3ccccc3)[C@@H](OC(=O)c3ccccc3)[C@H]2OC(=O)c2ccccc2)cc1 | 52.8 |  | 
15 | CC(=O)OC[C@H]1O[C@@H](Oc2ccc(/C=N\O)cc2)[C@H](OC(C)=O)[C@H](OC(C)=O)[C@@H]1OC(C)=O | > 200 | inactive | 
16 | NC(=S)N/N=C\c1ccc(O[C@@H]2O[C@H](CO)[C@@H](O)[C@@H](O)[C@H]2O)cc1 | 3.61 |  | 

Row | Compound | IC50 (Tyrosinase) [µM] | inhibition [1] | other results
17 | CO/N=C\c1ccc(O[C@@H]2OC[C@@H](OC(=O)c3ccccc3)[C@H](OC(=O)c3ccccc3)[C@H]2OC(=O)c2ccccc2)cc1 | > 200 | inactive | 
18 | CO/N=C\c1ccc(O[C@@H]2O[C@H](CO)[C@@H](O)[C@@H](O)[C@H]2O)cc1 | > 200 | inactive | 
19 | O=Cc1ccc(O[C@@H]2O[C@H](CO)[C@@H](O)[C@@H](O)[C@H]2O)cc1 |  | inactive | 
20 | O=Cc1ccc(O[C@@H]2O[C@H](CO)[C@@H](O)[C@H](O)[C@H]2O)cc1 |  | inactive | 
21 | CO/N=C\c1ccc(O[C@@H]2O[C@H](COC(=O)c3ccccc3)[C@@H](OC(=O)c3ccccc3)[C@@H](OC(=O)c3ccccc3)[C@H]2OC(=O)c2ccccc2)cc1 | > 200 | inactive | 
22 | O=Cc1ccc(O[C@@H]2OC[C@@H](OC(=O)c3ccccc3)[C@H](OC(=O)c3ccccc3)[C@H]2OC(=O)c2ccccc2)cc1 |  | inactive | 
23 | CC(=O)OC[C@H]1O[C@@H](Oc2ccc(/C=N\O)cc2)[C@H](OC(C)=O)[C@@H](OC(C)=O)[C@@H]1OC(C)=O | > 200 | inactive | 
24 | CC(=O)OC[C@H]1O[C@@H](O[C@H]2[C@H](OC(C)=O)[C@@H](OC(C)=O)[C@H](Oc3ccc(/C=N\NC(N)=S)cc3)O[C@@H]2COC(C)=O)[C@H](OC(C)=O)[C@@H](OC(C)=O)[C@H]1OC(C)=O | 0.65 |  | inhibition [2]: Active; inhibition [3]: Active
25 | CC(=O)OC[C@H]1O[C@@H](Oc2ccc(/C=N\NC(N)=S)cc2)[C@H](OC(C)=O)[C@H](OC(C)=O)[C@@H]1OC(C)=O | 3.41 |  | 
26 | CO/N=C\c1ccc(O[C@@H]2O[C@H](COC(C)=O)[C@H](OC(C)=O)[C@H](OC(C)=O)[C@H]2OC(C)=O)cc1 | > 200 | inactive | 
27 | NC(=S)N/N=C\c1ccc(O[C@@H]2O[C@H](CO)[C@@H](O)[C@H](O)[C@H]2O)cc1 | 2.96 |  | 
28 | O=Cc1ccc(O[C@@H]2O[C@H](COC(=O)c3ccccc3)[C@@H](OC(=O)c3ccccc3)[C@@H](OC(=O)c3ccccc3)[C@H]2OC(=O)c2ccccc2)cc1 |  | inactive | 
29 | NC(=S)N/N=C\c1ccc(O[C@@H]2OC[C@@H](OC(=O)c3ccccc3)[C@H](OC(=O)c3ccccc3)[C@H]2OC(=O)c2ccccc2)cc1 | 36.5 |  | 
30 | CO/N=C\c1ccc(O[C@@H]2O[C@H](COC(C)=O)[C@@H](O[C@@H]3O[C@H](COC(C)=O)[C@H](OC(C)=O)[C@H](OC(C)=O)[C@H]3OC(C)=O)[C@H](OC(C)=O)[C@H]2OC(C)=O)cc1 | > 200 | inactive | 
31 | CC(=O)OC[C@H]1O[C@@H](Oc2ccc(/C=N\NC(N)=S)cc2)[C@H](OC(C)=O)[C@@H](OC(C)=O)[C@@H]1OC(C)=O | 0.31 |  | inhibition [2]: Active; inhibition [4]: Active
32 | O=C(OC[C@H]1O[C@@H](Oc2ccc(/C=N\O)cc2)[C@H](OC(=O)c2ccccc2)[C@H](OC(=O)c2ccccc2)[C@@H]1OC(=O)c1ccccc1)c1ccccc1 | > 200 | inactive | 
